Assay results reported in patent US20140120087A1, “TRIAZOLOPYRIDINES” (BAYER INTELLECTUAL PROPERTY GMBH, priority 2011, published 2014).

Columns and labels:
[1] = Hydrolytic stability assay at pH 2; assay type: physicochemical; details: buffer pH 2, 37° C., compounds of the invention
Method in brief: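 Compound from a 10 mM DMSO stock was diluted in acetonitrile, added to pH 2 buffer and incubated at 37° C. HPLC injections were made at time zero and after 1, 2 and 24 hrs. Decay (%) was calculated from peak areas relative to the time-zero injection.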

Mps-1 kinase [2] = molecular target: T1, Mps-1 kinase (Homo sapiens, UniProt P33981); assay: Mps-1 kinase assay with 10 μM ATP (TR-FRET)
T1 sequence (P33981 1-857): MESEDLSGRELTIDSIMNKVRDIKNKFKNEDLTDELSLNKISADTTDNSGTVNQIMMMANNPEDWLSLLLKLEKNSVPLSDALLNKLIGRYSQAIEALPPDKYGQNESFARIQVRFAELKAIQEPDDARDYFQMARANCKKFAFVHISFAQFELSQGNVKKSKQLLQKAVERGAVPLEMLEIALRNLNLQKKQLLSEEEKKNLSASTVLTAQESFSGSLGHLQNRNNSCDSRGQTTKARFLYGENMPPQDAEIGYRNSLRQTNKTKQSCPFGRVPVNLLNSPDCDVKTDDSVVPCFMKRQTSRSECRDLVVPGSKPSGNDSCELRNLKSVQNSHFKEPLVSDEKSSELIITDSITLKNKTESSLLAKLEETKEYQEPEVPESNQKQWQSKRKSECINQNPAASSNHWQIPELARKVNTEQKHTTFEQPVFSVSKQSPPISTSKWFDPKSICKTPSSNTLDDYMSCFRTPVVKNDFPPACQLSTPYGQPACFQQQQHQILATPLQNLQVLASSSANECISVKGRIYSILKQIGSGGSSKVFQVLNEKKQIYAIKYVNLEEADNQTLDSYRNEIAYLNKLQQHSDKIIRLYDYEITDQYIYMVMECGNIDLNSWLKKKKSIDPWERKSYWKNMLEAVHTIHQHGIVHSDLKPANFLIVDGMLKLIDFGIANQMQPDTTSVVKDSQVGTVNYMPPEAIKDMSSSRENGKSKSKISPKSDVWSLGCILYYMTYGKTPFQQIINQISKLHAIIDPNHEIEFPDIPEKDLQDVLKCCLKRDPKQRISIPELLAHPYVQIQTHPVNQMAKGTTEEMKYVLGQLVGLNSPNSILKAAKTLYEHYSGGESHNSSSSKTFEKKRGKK

Mps-1 kinase [3] = molecular target: T1, Mps-1 kinase; assay: Mps-1 kinase assay with 2 mM ATP (TR-FRET)

| Structure (SMILES) | Hydrolysis at pH 2; Decay in % after 24 h [1] | IC50 (Mps-1 kinase [2]) | IC50 (Mps-1 kinase [3]) |
| --- | --- | --- | --- |
| COc1cc(C(=O)NCCO)ccc1Nc1nc2ccc(-c3ccc(NC(=O)Cc4ccc(F)cc4)cc3)cn2n1 [Example 01.6, 4-{[6-(4-{[(4-fluorophenyl)acetyl]amino}phenyl)[1,2,4]triazolo[1,5-α]-pyridin-2-yl]amino}-N-(2-hydroxyethyl)-3-methoxybenzamide] | <10% | ≤ 1 nM | ≤ 1 nM |
| CCOc1cc(C(=O)NCCS(C)(=O)=O)ccc1Nc1nc2ccc(-c3ccc(NC(=O)Cc4ccc(F)cc4)cc3)cn2n1 [Example 01.28, 3-ethoxy-4-{[6-(4-{[(4-fluorophenyl)acetyl]amino}phenyl)[1,2,4]triazolo-[1,5-α]pyridin-2-yl]amino}-N-[2-(methylsulfonyl)ethyl]benzamide] | <10% | ≤ 1 nM | ≤ 1 nM |
| CCNC(=O)c1ccc(Nc2nc3ccc(-c4ccc(C(=O)NCC5CC5)cc4)cn3n2)c(OCC(F)(F)F)c1 [Example 06.5, 4-[(6-{4-[(cyclopropylmethyl)carbamoyl]phenyl}[1,2,4]triazolo[1,5-α]-pyridin-2-yl)amino]-N-ethyl-3-(2,2,2-trifluoroethoxy)benzamide] | <10% | ≤ 1 nM | 19 nM |
| COc1cc(C(=O)NCCO)ccc1Nc1nc2ccc(-c3ccc(C(=O)NCc4ccc(F)cc4)cc3)cn2n1 [Example 02.1, 4-[(6-{4-[(4-fluorobenzyl)carbamoyl]phenyl}[1,2,4]triazolo[1,5-α]pyridin-2-yl)amino]-N-(2-hydroxyethyl)-3-methoxybenzamide] | <10% | ≤ 1 nM | 1.1 nM |
| CCOCCNC(=O)c1ccc(Nc2nc3ccc(-c4ccc(NC(=O)Cc5ccc(F)cc5)cc4)cn3n2)c(OC)c1 [Example 01.7, N-(2-ethoxyethyl)-4-{[6-(4-{[(4-fluorophenyl)acetyl]amino}phenyl)[1,2,4]-triazolo[1,5-α]pyridin-2-yl]amino}-3-methoxybenzamide] | <10% | ≤ 1 nM | ≤ 1 nM |
| CCN(CC)C(=O)c1ccc(Nc2nc3ccc(-c4ccc(NC(=O)Cc5ccc(F)cc5)cc4)cn3n2)c(OC)c1 [Example 01.1, N,N-diethyl-4-{[6-(4-{[(4-fluorophenyl)acetyl]amino}phenyl)[1,2,4]-triazolo[1,5-α]pyridin-2-yl]amino}-3-methoxybenzamide] | <10% | ≤ 1 nM | 1.2 nM |
| COc1ccc(Nc2nc3ccc(-c4ccc(C(=O)NCc5ccc(F)cc5)cc4)cn3n2)c(OC)c1 [Example 02.16, 4-{2-[(2,4-dimethoxyphenyl)amino][1,2,4]triazolo[1,5-α]pyridin-6-yl}-N-(4-fluorobenzyl)benzamide] | <10% | ≤ 1 nM | 3.8 nM |
| CCOc1cc(C(=O)NCCO)ccc1Nc1nc2ccc(-c3ccc(C(=O)NCc4ccc(F)cc4)cc3)cn2n1 [Example 02.2, 3-ethoxy-4-[(6-{4-[(4-fluorobenzyl)carbamoyl]phenyl}[1,2,4]triazolo[1,5-α]pyridin-2-yl)amino]-N-(2-hydroxyethyl)benzamide] | <10% | ≤ 1 nM | ≤ 1 nM |
| O=C(NCc1ccc(F)cc1)c1ccc(-c2ccc3nc(Nc4ccc(C(=O)NCC(F)(F)F)cc4OCC(F)(F)F)nn3c2)cc1 [Example 02.23, 4-[(6-{4-[(4-fluorobenzyl)carbamoyl]phenyl}[1,2,4]triazolo[1,5-α]pyridin-2-yl)amino]-3-(2,2,2-trifluoroethoxy)-N-(2,2,2-trifluoroethyl)benzamide] | <10% | ≤ 1 nM | ≤ 1 nM |
| COc1cc(C(=O)NCCS(C)(=O)=O)ccc1Nc1nc2ccc(-c3ccc(C(=O)NCc4ccc(F)cc4)cc3)cn2n1 [Example 02.15, 4-[(6-{4-[(4-fluorobenzyl)carbamoyl]phenyl}[1,2,4]triazolo[1,5-α]pyridin-2-yl)amino]-3-methoxy-N-[2-(methylsulfonyl)ethyl]benzamide] | <10% | ≤ 1 nM | ≤ 1 nM |
| O=C(Cc1ccc(F)cc1)Nc1ccc(-c2ccc3nc(Nc4ccc(C(=O)NCCO)cc4OCC(F)(F)F)nn3c2)cc1 [Example 01.11, 4-{[6-(4-{[(4-fluorophenyl)acetyl]amino}phenyl)[1,2,4]triazolo[1,5-α]-pyridin-2-yl]amino}-N-(2-hydroxyethyl)-3-(2,2,2-trifluoroethoxy)benzamide] | <10% | ≤ 1 nM | ≤ 1 nM |
| COc1cc(C(=O)N(C)CCN(C)C(C)=O)ccc1Nc1nc2ccc(-c3ccc(C(=O)NCc4ccc(F)cc4)cc3)cn2n1 [Example 02.9, N-{2-[acetyl(methyl)amino]ethyl}-4-[(6-{4-[(4-fluorobenzyl)carbamoyl]-phenyl}[1,2,4]triazolo[1,5-α]pyridin-2-yl)amino]-3-methoxy-N-methylbenzamide] | <10% | ≤ 1 nM | 2.2 nM |
| COc1cc(C(=O)NC(C)(C)CO)ccc1Nc1nc2ccc(-c3ccc(NC(=O)Cc4ccc(F)cc4)cc3)cn2n1 [Example 01.13, 4-{[6-(4-{[(4-fluorophenyl)acetyl]amino}phenyl)[1,2,4]triazolo[1,5-α]-pyridin-2-yl]amino}-N-(1-hydroxy-2-methylpropan-2-yl)-3-methoxy-benzamide] | <10% | ≤ 1 nM | ≤ 1 nM |
| COc1cc(C(=O)NCC(C)(C)O)ccc1Nc1nc2ccc(-c3ccc(C(=O)NCc4ccc(F)cc4)cc3)cn2n1 [Example 02.5, 4-[(6-{4-[(4-fluorobenzyl)carbamoyl]phenyl}[1,2,4]triazolo[1,5-α]pyridin-2-yl)amino]-N-(2-hydroxy-2-methylpropyl)-3-methoxybenzamide] | <10% | ≤ 1 nM | 1.8 nM |
